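Each compound was tested at five concentrations against cells in 96-well plates for 48 hours. The concentration for 50% growth inhibition is given as GI50.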 The source made the active and inactive calls. Cut-off read from the data, not from the text of the source: active = GI50 up to about 1.1 µM and inactive = higher.
Columns and labels:
Assay in all cases: NCI anticancer screen, dose series, 48 h
786-0 = test system: 786-0
A498 = test system: A498
BT-549 = test system: BT-549
EKVX = test system: EKVX
HOP-62 = test system: HOP-62
Hs-578T = test system: Hs-578T
MOLT-4 = test system: MOLT-4
OVCAR-4 = test system: OVCAR-4
OVCAR-5 = test system: OVCAR-5
OVCAR-8 = test system: OVCAR-8
PC-3 = test system: PC-3
RPMI-8226 = test system: RPMI-8226
SF-539 = test system: SF-539
SK-OV-3 = test system: SK-OV-3
SR = test system: SR
T47D = test system: T47D
TK-10 = test system: TK-10
UACC-62 = test system: UACC-62
MDA-N = test system: MDA-N

Measured: GI50

COc1nc(OC)nc(-c2cccc(F)c2)n1
inactive: 786-0 19 µM | A498 19.1 µM | BT-549 14 µM | EKVX 4.6 µM | HOP-62 20.4 µM | Hs-578T 32.1 µM | MOLT-4 4.99 µM | OVCAR-4 15.7 µM | OVCAR-5 11.5 µM | OVCAR-8 23.4 µM | PC-3 19.3 µM | RPMI-8226 10.8 µM | SF-539 17.4 µM | SK-OV-3 15.9 µM | SR 2.2 µM | T47D 13.2 µM | TK-10 18.3 µM | UACC-62 8.51 µM

Oc1ccc(Cl)cc1C1=NC(NCN2CCN(CNC3=NC(c4ccccc4)CC(c4cc(Cl)ccc4O)=N3)CC2)=NC(c2ccccc2)C1 (stereo not given)
inactive: 786-0 20.9 µM | A498 47.8 µM | BT-549 52.2 µM | EKVX 48.3 µM | HOP-62 42.2 µM | Hs-578T 55.7 µM | MDA-N 50.2 µM | OVCAR-4 28.9 µM | OVCAR-5 50.9 µM | OVCAR-8 31.8 µM | PC-3 39.7 µM | RPMI-8226 18.4 µM | SF-539 72.1 µM | SK-OV-3 66.7 µM | SR 28 µM | TK-10 48.8 µM | UACC-62 45 µM

O=C1c2ccccc2-n2c1nc1ccc(Cl)cc1c2=O
active: T47D 0.474 µM
inactive: 786-0 26.1 µM | A498 > 100 µM | BT-549 > 100 µM | EKVX 92 µM | HOP-62 30.8 µM | MDA-N 16.6 µM | MOLT-4 78.3 µM | OVCAR-4 > 100 µM | OVCAR-5 > 100 µM | OVCAR-8 35.2 µM | PC-3 > 100 µM | RPMI-8226 1.36 µM | SF-539 > 100 µM | SK-OV-3 > 100 µM | SR 77.4 µM | TK-10 77.4 µM | UACC-62 16.3 µM

CC1(C)S[C@H](CN)N[C@H]1C(=O)OC(c1ccccc1)c1ccccc1
inactive: 786-0 48.5 µM | A498 20 µM | BT-549 24.8 µM | EKVX 47.2 µM | HOP-62 49.9 µM | Hs-578T 83.2 µM | MOLT-4 24.3 µM | OVCAR-4 27.3 µM | OVCAR-5 60.8 µM | OVCAR-8 57.9 µM | PC-3 25.5 µM | RPMI-8226 21.6 µM | SK-OV-3 78.3 µM | SR 27.9 µM | T47D 27.9 µM | TK-10 61.7 µM | UACC-62 22.9 µM

C/C(=C\c1ccccc1)C(=O)NCc1ccc(C(=O)NCCC(C)C)cc1
inactive: 786-0 38.3 µM | A498 27 µM | BT-549 33.8 µM | EKVX 76.4 µM | HOP-62 18.2 µM | MDA-N > 100 µM | MOLT-4 > 100 µM | OVCAR-4 > 100 µM | OVCAR-5 > 100 µM | OVCAR-8 37.2 µM | PC-3 > 100 µM | RPMI-8226 > 100 µM | SF-539 32.9 µM | SK-OV-3 25.2 µM | T47D > 100 µM | TK-10 > 100 µM | UACC-62 15.6 µM

COc1ccc(N2C(=O)C3ON(C(C(N)=O)c4ccccc4)C(c4ccc(-c5ccccc5)cc4)C3C2=O)cc1 (stereo not given)
inactive: 786-0 > 50 µM | A498 > 50 µM | BT-549 > 50 µM | EKVX > 50 µM | HOP-62 > 50 µM | Hs-578T > 50 µM | MOLT-4 > 50 µM | OVCAR-4 > 50 µM | OVCAR-5 > 50 µM | OVCAR-8 > 50 µM | PC-3 > 50 µM | RPMI-8226 16.8 µM | SF-539 > 50 µM | SK-OV-3 > 50 µM | SR > 50 µM | T47D > 50 µM | TK-10 > 50 µM | UACC-62 > 50 µM

CN(C)C(=O)C(F)(F)C(c1ccc(C(F)(F)F)cc1)C1C(=O)N(C)C(=O)N(C)C1=O (stereo not given)
inactive: 786-0 > 100 µM | A498 > 100 µM | BT-549 > 100 µM | EKVX > 100 µM | HOP-62 > 100 µM | OVCAR-4 > 100 µM | OVCAR-5 > 100 µM | PC-3 > 100 µM | RPMI-8226 > 100 µM | SK-OV-3 > 100 µM | T47D > 100 µM | TK-10 > 100 µM | UACC-62 > 100 µM

O=C(N/N=C/c1ccc(Cl)cc1)c1ccccc1Nc1ccccc1C(=O)N/N=C/c1ccc(Cl)cc1
inactive: 786-0 > 100 µM | A498 > 100 µM | BT-549 > 100 µM | EKVX > 100 µM | HOP-62 > 100 µM | MDA-N > 100 µM | MOLT-4 > 100 µM | OVCAR-4 > 100 µM | OVCAR-5 38.6 µM | OVCAR-8 > 100 µM | PC-3 > 100 µM | RPMI-8226 > 100 µM | SK-OV-3 > 100 µM | SR > 100 µM | T47D > 100 µM | TK-10 > 100 µM | UACC-62 > 100 µM
